From ChEMBL document CHEMBL2401659, “Synthesis, anticancer activity and photophysical properties of novel substituted 2-oxo-2H-chromenylpyrazolecarboxylates” (Eur J Med Chem, 2013)
pIC50: −log10 of the molar value.

Assays:
Assay type in all cases: functional, cell-based
[1] = system: A549; test: Cytotoxicity against human A549 cells after 48 hrs by MTT assay; settings: A549, 48 h
[2] = system: DU-145; test: Cytotoxicity against human DU145 cells after 48 hrs by MTT assay; settings: DU-145, 48 h
[3] = system: HeLa; test: Cytotoxicity against human HeLa cells after 48 hrs by MTT assay

CCOC(=O)c1c(-c2c(Cl)c3ccccc3oc2=O)nn(-c2ccccc2)c1C(=O)OCC
pIC50 [1]: 4.47
pIC50 [2]: 4.32
pIC50 [3]: 4.00

Cc1ccc2oc(=O)c3cnn(-c4ccccc4)c3c2c1
pIC50 [1]: 3.90
pIC50 [2]: 3.96
pIC50 [3]: 3.72

CCOC(=O)c1c(-c2c(Cl)c3ccccc3oc2=O)nn(-c2cccc(C)c2)c1C(=O)OCC
pIC50 [1]: 4.44
pIC50 [2]: 4.49
pIC50 [3]: 4.52

COC(=O)c1c(-c2cc3ccccc3oc2=O)nn(-c2cccc(F)c2)c1C(=O)OC
pIC50 [1]: 4.30
pIC50 [2]: 4.43
pIC50 [3]: 4.12

CCOC(=O)c1c(-c2cc3ccccc3oc2=O)nn(-c2ccc(OC)cc2)c1C(=O)OCC
pIC50 [1]: 4.07
pIC50 [2]: 4.41
pIC50 [3]: 4.05

CCOC(=O)c1c(-c2cc3ccc(OC)cc3oc2=O)nn(-c2ccccc2)c1C(=O)OCC
pIC50 [1]: 3.88
pIC50 [2]: 4.48
pIC50 [3]: 3.85

Cc1nn(-c2ccc(Br)cc2)c2c1c(=O)oc1ccccc12
pIC50 [1]: 3.89
pIC50 [2]: 4.28
pIC50 [3]: 3.89

COC(=O)c1c(-c2cc3ccccc3oc2=O)nn(-c2cccc(Cl)c2)c1C(=O)OC
pIC50 [1]: 4.52
pIC50 [2]: 4.49
pIC50 [3]: 4.12

COC(=O)Nc1nc2cc(C(=O)c3cccs3)ccc2[nH]1 [NOCODAZOLE]
pIC50 [1]: 5.64
pIC50 [2]: 5.55
pIC50 [3]: 6.15

COc1cccc2c1C(=O)c1c(O)c3c(c(O)c1C2=O)C[C@@](O)(C(=O)CO)C[C@@H]3O[C@H]1C[C@H](N)[C@H](O)[C@H](C)O1 [DOXORUBICIN]
pIC50 [1]: 5.40
pIC50 [2]: 5.22
pIC50 [3]: 5.39

Cc1ccc2oc(=O)c3cnn(-c4cccc(Cl)c4)c3c2c1
pIC50 [1]: 3.82
pIC50 [2]: 3.98
pIC50 [3]: 3.92

Cc1nn(-c2cccc(F)c2)c2c1c(=O)oc1ccccc12
pIC50 [1]: 3.90
pIC50 [2]: 3.87
pIC50 [3]: 3.56

Cc1nn(-c2ccc(Cl)cc2)c2c1c(=O)oc1ccccc12
pIC50 [1]: 3.87
pIC50 [2]: 3.92
pIC50 [3]: 4.08

CCOC(=O)c1c(-c2cc3cc(OC)ccc3oc2=O)nn(-c2ccccc2)c1C(=O)OCC
pIC50 [1]: 4.46
pIC50 [2]: 4.57
pIC50 [3]: 3.84

CCOC(=O)c1c(-c2cc3cc(OC)ccc3oc2=O)nn(-c2cccc(Cl)c2)c1C(=O)OCC
pIC50 [1]: 3.83
pIC50 [2]: 4.54
pIC50 [3]: 3.80

CCOC(=O)c1c(-c2cc3ccc(OC)cc3oc2=O)nn(-c2cccc(Cl)c2)c1C(=O)OCC
pIC50 [1]: 3.66
pIC50 [2]: 4.42
pIC50 [3]: 3.69

COc1ccc(-n2nc(C)c3c(=O)oc4ccccc4c32)cc1
pIC50 [1]: 4.57
pIC50 [2]: 3.76
pIC50 [3]: 3.72

CCOC(=O)c1c(-c2cc3cc4c(cc3oc2=O)OC(C)(C)CC4)nn(-c2cccc(Cl)c2)c1C(=O)OCC
pIC50 [1]: 3.84
pIC50 [2]: 4.13
pIC50 [3]: 3.84

CCOC(=O)c1c(-c2c(Cl)c3ccccc3oc2=O)nn(-c2ccc(Br)cc2)c1C(=O)OCC
pIC50 [1]: 4.52
pIC50 [2]: 4.49
pIC50 [3]: 3.30

Cc1nn(-c2ccccc2)c2c1c(=O)oc1ccccc12
pIC50 [1]: 3.92
pIC50 [2]: 3.92
pIC50 [3]: 3.92

CCOC(=O)c1c(-c2cc3c(ccc4ccccc43)oc2=O)nn(-c2cccc(Cl)c2)c1C(=O)OCC
pIC50 [1]: 3.78
pIC50 [2]: 3.59
pIC50 [3]: 3.77

CCOC(=O)c1c(-c2cc3ccc(OCC=C(C)C)cc3oc2=O)nn(-c2ccccc2)c1C(=O)OCC
pIC50 [1]: 3.87
pIC50 [2]: 4.12
pIC50 [3]: 3.89

CCOC(=O)c1c(-c2cc3cc(OC)ccc3oc2=O)nn(-c2cccc(C)c2)c1C(=O)OCC
pIC50 [1]: 3.99
pIC50 [2]: 4.51
pIC50 [3]: 3.81

COC(=O)c1c(-c2cc3ccccc3oc2=O)nn(-c2ccccc2)c1C(=O)OC
pIC50 [1]: 4.55
pIC50 [2]: 4.52
pIC50 [3]: 4.46

CCOC(=O)c1c(-c2c(Cl)c3cc(C)ccc3oc2=O)nn(-c2ccccc2)c1C(=O)OCC
pIC50 [1]: 3.97
pIC50 [2]: 4.30
pIC50 [3]: 3.64

CCOC(=O)c1c(-c2c(Cl)c3cc(C)ccc3oc2=O)nn(-c2cccc(C)c2)c1C(=O)OCC
pIC50 [1]: 3.94
pIC50 [2]: 3.99
pIC50 [3]: 3.94

Cc1cccc(-n2ncc3c(=O)oc4ccc(C)cc4c32)c1
pIC50 [1]: 3.84
pIC50 [2]: 3.89
pIC50 [3]: 3.82

CCOC(=O)c1c(-c2cc3ccccc3oc2=O)nn(-c2cccc(Cl)c2)c1C(=O)OCC
pIC50 [1]: 4.55
pIC50 [2]: 4.46
pIC50 [3]: 4.66

Cc1nn(-c2cccc(Cl)c2)c2c1c(=O)oc1ccccc12
pIC50 [1]: 4.07
pIC50 [2]: 3.86
pIC50 [3]: 3.76

CCOC(=O)c1c(-c2cc3ccccc3oc2=O)nn(-c2ccc(Cl)cc2)c1C(=O)OCC
pIC50 [1]: 4.46
pIC50 [2]: 4.59
pIC50 [3]: 4.06

O=c1oc2ccccc2c2c1cnn2-c1cccc(Cl)c1
pIC50 [1]: 3.96
pIC50 [2]: 4.22
pIC50 [3]: 3.96

CCOC(=O)c1c(-c2cc3ccc(OC)cc3oc2=O)nn(-c2cccc(C)c2)c1C(=O)OCC
pIC50 [1]: 3.77
pIC50 [2]: 4.46
pIC50 [3]: 4.46

CCOC(=O)c1c(-c2cc3ccccc3oc2=O)nn(-c2ccc(Br)cc2)c1C(=O)OCC
pIC50 [1]: 4.00
pIC50 [2]: 4.21
pIC50 [3]: 3.60

CCOC(=O)c1c(-c2cc3ccc(OCC=C(C)C)cc3oc2=O)nn(-c2cccc(C)c2)c1C(=O)OCC
pIC50 [1]: 3.75
pIC50 [2]: 3.90
pIC50 [3]: 3.82

CCOC(=O)c1c(-c2cc3ccccc3oc2=O)nn(-c2ccc(C)c(C)c2)c1C(=O)OCC
pIC50 [1]: 4.28
pIC50 [2]: 4.40
pIC50 [3]: 4.30

CCOC(=O)c1c(-c2cc3c(ccc4ccccc43)oc2=O)nn(-c2cccc(C)c2)c1C(=O)OCC
pIC50 [1]: 3.75
pIC50 [2]: 3.59
pIC50 [3]: 3.81

COc1ccc2oc(=O)c3c(C)nn(-c4ccccc4)c3c2c1
pIC50 [1]: 3.82
pIC50 [2]: 3.82
pIC50 [3]: 3.94

Cc1cccc(-n2nc(C)c3c(=O)oc4ccccc4c32)c1
pIC50 [1]: 4.37
pIC50 [2]: 3.82
pIC50 [3]: 3.81

CCOC(=O)c1c(-c2c(Cl)c3ccccc3oc2=O)nn(-c2cccc(Cl)c2)c1C(=O)OCC
pIC50 [1]: 4.42
pIC50 [2]: 4.62
pIC50 [3]: 4.40

CCOC(=O)c1c(-c2cc3ccc(OCC=C(C)C)cc3oc2=O)nn(-c2cccc(Cl)c2)c1C(=O)OCC
pIC50 [1]: 3.79
pIC50 [2]: 3.86
pIC50 [3]: 3.96

COC(=O)c1c(-c2cc3ccccc3oc2=O)nn(-c2cccc(C)c2)c1C(=O)OC
pIC50 [1]: 4.29
pIC50 [2]: 4.46
pIC50 [3]: 4.35

COC(=O)c1c(-c2cc3ccccc3oc2=O)nn(-c2ccc(Br)cc2)c1C(=O)OC
pIC50 [1]: 3.78
pIC50 [2]: 4.03
pIC50 [3]: 3.92

CCOC(=O)c1c(-c2cc3c(ccc4ccccc43)oc2=O)nn(-c2ccccc2)c1C(=O)OCC
pIC50 [1]: 3.87
pIC50 [2]: 4.10
pIC50 [3]: 3.92

O=c1oc2ccccc2c2c1cnn2-c1ccccc1
pIC50 [1]: 3.76
pIC50 [2]: 3.90
pIC50 [3]: 3.78

CCOC(=O)c1c(-c2cc3cc4c(cc3oc2=O)OC(C)(C)CC4)nn(-c2ccccc2)c1C(=O)OCC
pIC50 [1]: 3.72
pIC50 [2]: 3.68
pIC50 [3]: 3.90

CCOC(=O)c1c(-c2c(Cl)c3ccccc3oc2=O)nn(-c2ccc(OC)cc2)c1C(=O)OCC
pIC50 [1]: 4.74
pIC50 [2]: 4.60
pIC50 [3]: 4.57

CCOC(=O)c1c(-c2cc3ccccc3oc2=O)nn(-c2ccccc2)c1C(=O)OCC
pIC50 [1]: 4.00
pIC50 [2]: 4.24
pIC50 [3]: 4.00

Cc1cccc(-n2ncc3c(=O)oc4ccccc4c32)c1
pIC50 [1]: 3.80
pIC50 [2]: 4.00
pIC50 [3]: 3.87

CCOC(=O)c1c(-c2cc3ccccc3oc2=O)nn(-c2cccc(C)c2)c1C(=O)OCC
pIC50 [1]: 4.28
pIC50 [2]: 4.33
pIC50 [3]: 3.61

CCOC(=O)c1c(-c2cc3cc4c(cc3oc2=O)OC(C)(C)CC4)nn(-c2cccc(C)c2)c1C(=O)OCC
pIC50 [1]: 3.76
pIC50 [2]: 4.17
pIC50 [3]: 3.98

CCOC(=O)c1c(-c2cc3ccccc3oc2=O)nn(-c2cccc(F)c2)c1C(=O)OCC
pIC50 [1]: 4.23
pIC50 [2]: 4.49
pIC50 [3]: 4.17

CCOC(=O)c1c(-c2c(Cl)c3cc(C)ccc3oc2=O)nn(-c2cccc(Cl)c2)c1C(=O)OCC
pIC50 [1]: 3.89
pIC50 [2]: 3.81
pIC50 [3]: 3.90
